# Assay results published in US20210206744A1, “BENZIMIDAZOLE COMPOUNDS AS AGRICULTURAL CHEMICALS” (REDAG CROP PROTECTION LTD, priority 2017, published 2021).
# Columns and labels:
# [1] = tested on: Phytophthora cactorum; assay: 96 well plate test; format: cell-based; parameters: key to EC50 Phytophthora cactorum: G: no control detected at 2 ppm; F: an EC50 of ≥2 ppm; an EC50 of less than 2 ppm; settings: agar amended to 2, 0.2, 0.02 and 0.002 ppm, 18° C., assessed after 2 to 3 days; for EC50: Phytophthora cactorum
# Experimental: Compounds were screened in 96 well plates with 10 compounds per plate. Each compound was screened using agar amended to 2, 0.2, 0.02 and 0.002 ppm, with proline at 50 and 10 ppm and 0.2% DMSO used as controls. Each test concentration and standard was replicated twice on a plate. Compounds were screened against Phytophthora cactorum. The agar used in the test is a 1% potato dextrose agar. 1000 spores/mL agar were added to the appropriate agar.
# A ×10 stock solution in 2% DMSO was produced for each dose i.e. 20, 2, 0.2 and 0.02 ppm, and 10 μl of this added to the appropriate wells on the plate. An equivalent amount of 2% DMSO and proline stock at 500 and 100 ppm were added for the controls. To each well 90 μl of the appropriate agar spore suspension was added to give the required final well concentrations. Plates were incubated at room temperature (18° C.) and assessed after 2 to 3 days. The amount of pathogen growth in each well was compared to the DMSO controls and an EC50 concentration was calculated. The results are provided in Table 1 in which G represents no control detected at 2 ppm, F represents an EC50 of ≥2 ppm, and E represents an EC50 of less than 2 ppm.
# [2] = tested on: Pythium ultimum; assay: Amended agar assay; format: cell-based; parameters: key to % control Pythium ultimum (% reduction in colony growth compared to the control plate): D: no control detected at this concentration; C: up to 50% control; B: from 50 to 99% control; A: a control of greater than 99%, i.e. no detectable colony growth; settings: potato dextrose agar amended with compound at 2 ppm, 18° C., 2 to 7 days; for inhibition of growth at 2 ppm: Globisporangium ultimum, read-out: % control Pythium ultimum (% reduction in colony growth compared to the control plate)
# Experimental: Amended Agar Assay Testing was carried out on potato dextrose agar (PDA) amended with each compound at a test concentration of 2 ppm. Amended agar was poured into three replicate 9 cm petri dishes. Each replicate dish was inoculated in the centre with a 5 mm agar plug taken from the leading edge of a culture aged between 2 and 7 days old; the age of the culture was dependent on the growth rate of the pathogen being tested. The test pathogen was Pythium ultimum. Plates were incubated at 18° C. and the diameter of each colony measured before growth on the fastest growing plate reached the plate edge. This varied between 2 and 7 days depending on the growth rate of test pathogens. The % reduction in colony growth compared to the control plate was calculated. The results are provided in Table 1, in which D represents no control detected at this concentration; C represents up to 50% control; B from 50 to 99% control; and A represents a control of greater than 99%, i.e. no detectable colony growth.
SMILES,EC50 [1] [µg/mL],EC50 Phytophthora cactorum [1],inhibition of growth at 2 ppm [2] [%],% control Pythium ultimum (% reduction in colony growth compared to the control plate) [2]
"Cn1nnnc1-n1c(OCc2cccc(NC(=O)C3CC3)n2)nc2c(Cl)cccc21 [Compound 1, N-(6-(((4-Chloro-1-(1-methyl-1H-tetrazol-5-yl)-1H-benzo[d]imidazol-2-yl)oxy)methyl)pyridin-2-yl)cyclopropanecarboxamide]",< 2,,> 99,
Cn1nnnc1-n1c(OCc2cccc(NC(=O)COc3ccccc3)n2)nc2c(Cl)cccc21 [Compound 2],< 2,,> 99,
Cn1nnnc1-n1c(OCc2cccc(NC(=O)OC(C)(C)C)n2)nc2c(Cl)cccc21 [Compound 3],< 2,,> 99,
COc1cc(F)cc2c1nc(OCc1cccc(NC(=O)OC(C)(C)C)n1)n2-c1nnnn1C [Compound 4],< 2,,> 99,
COc1cc(F)cc2c1nc(OCc1cccc(NC(=O)COc3ccccc3)n1)n2-c1nnnn1C [Compound 5],< 2,,> 99,
COc1cc(F)cc2c1nc(OCc1cccc(NC(=O)C3CC3)n1)n2-c1nnnn1C [Compound 6],≥ 2,,50 to 99,
"C=CCOc1cccc2c1nc(OCc1cccc(NC(=O)OC(C)(C)C)n1)n2-c1nnnn1C [Compound 7, tert-butyl (6-(((4-(allyloxy)-1-(1-methyl-1H-tetrazol-5-yl)-1H-benzo[d]imidazol-2-yl)oxy)methyl)pyridin-2-yl)carbamate]",< 2,,> 99,
COc1cccc2c1nc(OCc1cccc(NC(=O)OC(C)(C)C)n1)n2-c1nnnn1C [Compound 8],< 2,,> 99,
CC(C)CCC(=O)Nc1cccc(COc2nc3c(Cl)cccc3n2-c2nnnn2C)n1 [Compound 9],< 2,,> 99,
Cn1nnnc1-n1c(OCc2cccc(NC(=O)C3CCCC3)n2)nc2c(Cl)cccc21 [Compound 10],< 2,,> 99,
C=CCOC(=O)Nc1cccc(COc2nc3c(Cl)cccc3n2-c2nnnn2C)n1 [Compound 11],< 2,,> 99,
CCCC(=O)Nc1cccc(COc2nc3c(Cl)cccc3n2-c2nnnn2C)n1 [Compound 12],< 2,,> 99,
CCCCOC(=O)Nc1cccc(COc2nc3c(Cl)cccc3n2-c2nnnn2C)n1 [Compound 13],< 2,,> 99,
CCOC(=O)Nc1cccc(COc2nc3c(Cl)cccc3n2-c2nnnn2C)n1 [Compound 14],≥ 2,,> 99,
CC(C)COC(=O)Nc1cccc(COc2nc3c(Cl)cccc3n2-c2nnnn2C)n1 [Compound 15],< 2,,> 99,
CCCOC(=O)Nc1cccc(COc2nc3c(Cl)cccc3n2-c2nnnn2C)n1 [Compound 16],< 2,,> 99,
Cn1nnnc1-n1c(OCc2cccc(NC(=O)OC3CCCC3)n2)nc2c(Cl)cccc21 [Compound 17],< 2,,> 99,
CC(C)OC(=O)Nc1cccc(COc2nc3c(Cl)cccc3n2-c2nnnn2C)n1 [Compound 18],≥ 2,,> 99,
Cn1nnnc1-n1c(OCc2cccc(NC(=O)C(C)(C)C)n2)nc2c(Cl)cccc21 [Compound 19],< 2,,> 99,
Cc1cccc2c1nc(OCc1cccc(NC(=O)COc3ccccc3)n1)n2-c1nnnn1C [Compound 20],< 2,,> 99,
Cc1cccc2c1nc(OCc1cccc(NC(=O)OC(C)(C)C)n1)n2-c1nnnn1C [Compound 21],< 2,,> 99,
"Cn1nnnc1-n1c(OCc2cccc(NC(=O)OC(C)(C)C)n2)nc2c(O)cccc21 [Compound 22, tert-Butyl (6-(((4-hydroxy-1-(1-methyl-1H-tetrazol-5-yl)-1H-benzo[d]imidazol-2-yl)oxy)methyl)pyridin-2-yl)carbamate]",≥ 2,,50 to 99,
"CCC(=O)Nc1cccc(COc2nc3c(Cl)cccc3n2-c2nnnn2C)n1 [Compound 23, N-(6-(((4-Chloro-1-(1-methyl-1H-tetrazol-5-yl)-1H-benzo[d]imidazol-2-yl)oxy)methyl)pyridin-2-yl)propionamide]",≥ 2,,> 99,
CC(C)C(=O)Nc1cccc(COc2nc3c(Cl)cccc3n2-c2nnnn2C)n1 [Compound 24],< 2,,> 99,

# Further lines, with some results ahead:
EC50 [1] [µg/mL],EC50 Phytophthora cactorum [1],SMILES,inhibition of growth at 2 ppm [2] [%],% control Pythium ultimum (% reduction in colony growth compared to the control plate) [2]
< 2,,CCCCC(=O)Nc1cccc(COc2nc3c(Cl)cccc3n2-c2nnnn2C)n1 [Compound 25],> 99,
< 2,,CC(C)CC(=O)Nc1cccc(COc2nc3c(Cl)cccc3n2-c2nnnn2C)n1 [Compound 26],> 99,
< 2,,CCC(CC)C(=O)Nc1cccc(COc2nc3c(Cl)cccc3n2-c2nnnn2C)n1 [Compound 27],> 99,
≥ 2,,CC(=O)Nc1cccc(COc2nc3c(Cl)cccc3n2-c2nnnn2C)n1 [Compound 28],50 to 99,
< 2,,Cn1nnnc1-n1c(OCc2cccc(NC(=O)C(F)(F)F)n2)nc2c(Cl)cccc21 [Compound 29],> 99,
< 2,,Cn1nnnc1-n1c(OCc2cccc(NC(=O)CC(F)(F)F)n2)nc2c(Cl)cccc21 [Compound 30],> 99,
< 2,,Cn1nnnc1-n1c(OCc2cccc(NC(=O)c3ccccc3)n2)nc2c(Cl)cccc21 [Compound 31],> 99,
< 2,,Cn1nnnc1-n1c(OCc2cccc(NC(=O)C3CCC3)n2)nc2c(Cl)cccc21 [Compound 32],> 99,
< 2,,Cn1nnnc1-n1c(OCc2cccc(NC(=O)CC(C)(C)C)n2)nc2c(Cl)cccc21 [Compound 33],> 99,
< 2,,"Cn1nnnc1-n1c(OCc2cccc(NC(=O)OC(C)(C)C)n2)nc2c(Br)cccc21 [Compound 34, tert-Butyl (6-(((4-bromo-1-(1-methyl-1H-tetrazol-5-yl)-1H-benzo[d]imidazol-2-yl)oxy)methyl)pyridin-2-yl)carbamate]",> 99,
< 2,,CCCCOC(=O)Nc1cccc(COc2nc3c(Br)cccc3n2-c2nnnn2C)n1 [Compound 35],> 99,
< 2,,Cn1nnnc1-n1c(OCc2cccc(NC(=O)COc3ccccc3)n2)nc2c(Br)cccc21 [Compound 36],> 99,
< 2,,Cn1nnnc1-n1c(OCc2cccc(NC(=O)C3CCCC3)n2)nc2c(Br)cccc21 [Compound 37],> 99,
< 2,,CC(C)COC(=O)Nc1cccc(COc2nc3c(Br)cccc3n2-c2nnnn2C)n1 [Compound 38],> 99,
< 2,,CCCOC(=O)Nc1cccc(COc2nc3c(Br)cccc3n2-c2nnnn2C)n1 [Compound 39],> 99,
< 2,,Cn1nnnc1-n1c(OCc2cccc(NC(=O)OC3CCCC3)n2)nc2c(Br)cccc21 [Compound 40],> 99,
< 2,,CC(C)CC(=O)Nc1cccc(COc2nc3c(Br)cccc3n2-c2nnnn2C)n1 [Compound 41],> 99,
< 2,,CCCCC(=O)Nc1cccc(COc2nc3c(Br)cccc3n2-c2nnnn2C)n1 [Compound 42],> 99,
,G,CCCCC(=O)Nc1nc(COc2nc3c(Cl)cccc3n2-c2nnnn2C)cs1 [Compound 43],,D
≥ 2,,CC(C)CCC(=O)Nc1nc(COc2nc3c(Cl)cccc3n2-c2nnnn2C)cs1 [Compound 44],< 50,
< 2,,"Cn1nnnc1-n1c(OCc2cccc(NC(=O)OC(C)(C)C)n2)nc2c(-c3ccccc3)cccc21 [Compound 45, tert-Buty (6-(((1-(1-methyl-1H-tetrazol-5-yl)-4-phenyl-1H-benzo[d]imidazol-2-yl)oxy)methyl)pyridin-2-yl)carbamate]",> 99,
